Assay results from patent US7939537B2, “HIV integrase inhibitors” (Istituto Di Ricerche Di Biologia Molecolare P. Angeletti …, priority 2006, dated 2011).

Tested on: HIV
Assay: Assay for inhibition of HIV replication (spread assay; acute HIV infection of T-lymphoid cells)
Assay type: cell-based
Conditions: Human immunodeficiency virus 1, tested up to 1 micromolar
Description: Assay for Inhibition of HIV Replication
Assays for the inhibition of acute HIV infection of T-lymphoid cells were conducted in accordance with Vacca, J. P. et al., Proc. Natl. Acad. Sci. USA 1994, 91: 4096. […] The compounds of Examples 6, 8, 9, 14, 15, 21-23 and 29-35 were also tested in the spread assay up to 1 micromolar, but specific IC95 values were not obtained; i.e., the IC95 values for these compounds are greater than 1 micromolar.

First: O=C(NCc1ccc(F)cc1)c1nc2ccccn2c(=O)c1O [Example 1, N-(4-Fluorobenzyl)-3-hydroxy-4-oxo-4H-pyrido[1,2-a]pyrimidine-2-carboxamide]
Second: Cc1cccn2c(=O)c(O)c(C(=O)NCc3ccc(F)cc3)nc12 [Example 29, N-(4-fluorobenzyl)-3-hydroxy-9-methyl-4-oxo-4H-pyrido[1,2-a]pyrimidine-2-carboxamide]
The IC95 of the first is lower: under 1 µM for the first, over 1 µM for the second.

Compared with `CN(C(=O)CS(C)(=O)=O)c1cccn2c(=O)c(O)c(C(=O)NCc3ccc(F)cc3)nc12` [Example 2, N-(4-fluorobenzyl)-3-hydroxy-9-{methyl[(methylsulfonyl)acetyl]amino}-4-oxo-4H-pyrido[1,2-a]pyrimidine-2-carboxamide], `CC(=O)N(C)c1cccn2c(=O)c(O)c(C(=O)NCc3ccc(F)cc3)nc12` [Example 6, 9-[acetyl(methyl)amino]-N-(4-fluorobenzyl)-3-hydroxy-4-oxo-4H-pyrido[1,2-a]pyrimidine-2-carboxamide] is higher in IC95: under 1 µM for the first, over 1 µM for the second.

`CCN(CC)C(=O)C(=O)N(CC)c1cccn2c(=O)c(O)c(C(=O)NCc3ccc(F)cc3)nc12` [Example 3, N-(4-fluorobenzyl)-3-hydroxy-9-[(N,N,N′-triethyl)-ethanediamide]-4-oxo-4H-pyrido[1,2-a]pyrimidine-2-carboxamide] and `CCN(C(=O)C(=O)N(C)C)c1cccn2c(=O)c(O)c(C(=O)NCc3ccc(F)cc3)nc12` [Example 12, N-(2-{[(4-fluorobenzyl)amino]carbonyl}-3-hydroxy-4-oxo-4H-pyrido[1,2-a]pyrimidin-9-yl)-N-ethyl-N′,N′-dimethylethanediamide] cannot be ordered by IC95: under 1 µM for the first, under 1 µM for the second.

`O=C(NCc1ccc(F)cc1)c1nc2c(OCc3ccccc3)cccn2c(=O)c1O` [Example 4, N-(4-fluorobenzyl)-3-hydroxy-9-(benzyloxy)-4-oxo-4H-pyrido[1,2-a]pyrimidine-2-carboxamide] and `O=C(Nc1cccn2c(=O)c(O)c(C(=O)NCc3ccc(F)cc3)nc12)OCc1ccccc1` [Example 13, benzyl (2-{[(4-fluorobenzyl)amino]carbonyl}-3-hydroxy-4-oxo-4H-pyrido[1,2-a]pyrimidin-9-yl)carbamate] cannot be ordered by IC95: under 1 µM for the first, under 1 µM for the second.

Compared with `O=C(NCc1ccc(F)cc1)c1nc2ccc(-c3ccccc3N3CCOCC3)cn2c(=O)c1O` [Example 5], `O=C(NCc1ccc(F)cc1)c1nc2c(CN3CCOCC3)cccn2c(=O)c1O` [Example 32, N-(4-fluorobenzyl)-3-hydroxy-9-(morpholin-4-ylmethyl)-4-oxo-4H-pyrido[1,2-a]pyrimidine-2-carboxamide] is higher in IC95: under 1 µM for the first, over 1 µM for the second.

Going from `CN(C(=O)c1ccccc1)c1cccn2c(=O)c(O)c(C(=O)NCc3ccc(F)cc3)nc12` [Example 7, 9-[benzoyl(methyl)amino]-N-(4-fluorobenzyl)-3-hydroxy-4-oxo-4H-pyrido[1,2-a]pyrimidine-2-carboxamide] to `O=C(Nc1cccn2c(=O)c(O)c(C(=O)NCc3ccc(F)cc3)nc12)c1ccccc1` [Example 14, 9-[benzoylamino]-N-(4-fluorobenzyl)-3-hydroxy-4-oxo-4H-pyrido[1,2-a]pyrimidine-2-carboxamide], the IC95 rises from under 1 µM to over 1 µM.

Going from `CNc1cccn2c(=O)c(O)c(C(=O)NCc3ccc(F)cc3)nc12` [Example 8, 9-[methylamino]-N-(4-fluorobenzyl)-3-hydroxy-4-oxo-4H-pyrido[1,2-a]pyrimidine-2-carboxamide] to `CCNc1cccn2c(=O)c(O)c(C(=O)NCc3ccc(F)cc3)nc12` [Example 10, 9-[ethylamino]-N-(4-fluorobenzyl)-3-hydroxy-4-oxo-4H-pyrido[1,2-a]pyrimidine-2-carboxamide], the IC95 falls from over 1 µM to under 1 µM.

`CN(C)c1cccn2c(=O)c(O)c(C(=O)NCc3ccc(F)cc3)nc12` [Example 9, 9-[dimethylamino]-N-(4-fluorobenzyl)-3-hydroxy-4-oxo-4H-pyrido[1,2-a]pyrimidine-2-carboxamide] and `CN(C)Cc1cccn2c(=O)c(O)c(C(=O)NCc3ccc(F)cc3)nc12` [Example 30, 9-[(dimethylamino)methyl]-N-(4-fluorobenzyl)-3-hydroxy-4-oxo-4H-pyrido[1,2-a]pyrimidine-2-carboxamide] cannot be ordered by IC95: over 1 µM for the first, over 1 µM for the second.

`CN(C)C(=O)C(=O)N(C)c1cccn2c(=O)c(O)c(C(=O)NCc3ccc(F)cc3)nc12` [Example 11, N-(2-{[(4-fluorobenzyl)amino]carbonyl}-3-hydroxy-4-oxo-4H-pyrido[1,2-a]pyrimidin-9-yl)-N,N′,N′-trimethylethanediamide] and `CCCN(C(=O)C(=O)N(C)C)c1cccn2c(=O)c(O)c(C(=O)NCc3ccc(F)cc3)nc12` [Example 17, N-(2-{[(4-fluorobenzyl)amino]carbonyl}-3-hydroxy-4-oxo-4H-pyrido[1,2-a]pyrimidin-9-yl)-N-propyl-N′,N′-dimethylethanediamide] cannot be ordered by IC95: under 1 µM for the first, under 1 µM for the second.

First: CCN(C(=O)c1ccncc1)c1cccn2c(=O)c(O)c(C(=O)NCc3ccc(F)cc3)nc12 [Example 15, 9-[ethyl(isonicotinoyl)amino]-N-(4-fluorobenzyl)-3-hydroxy-4-oxo-4H-pyrido[1,2-a]pyrimidine-2-carboxamide]
Second: CCN(C(=O)c1ccccn1)c1cccn2c(=O)c(O)c(C(=O)NCc3ccc(F)cc3)nc12 [Example 16, 9-[ethyl(pyridin-2-ylcarbonyl)amino]-N-(4-fluorobenzyl)-3-hydroxy-4-oxo-4H-pyrido[1,2-a]pyrimidine-2-carboxamide]
The IC95 of the first is higher: over 1 µM for the first, under 1 µM for the second.

`CC(C)CN(C(=O)C(=O)N(C)C)c1cccn2c(=O)c(O)c(C(=O)NCc3ccc(F)cc3)nc12` [Example 18, N-(2-{[(4-fluorobenzyl)amino]carbonyl}-3-hydroxy-4-oxo-4H-pyrido[1,2-a]pyrimidin-9-yl)-N-isobutyl-N′,N′-dimethylethanediamide] and `CCN(C(=O)CN(C)C)c1cccn2c(=O)c(O)c(C(=O)NCc3ccc(F)cc3)nc12` [Example 20, 9-[(N,N-dimethylglycyl)(ethyl)amino]-N-(4-fluorobenzyl)-3-hydroxy-4-oxo-4H-pyrido[1,2-a]pyrimidine-2-carboxamide] cannot be ordered by IC95: under 1 µM for the first, under 1 µM for the second.

`CCN(C(=O)C(=O)N1CCOCC1)c1cccn2c(=O)c(O)c(C(=O)NCc3ccc(F)cc3)nc12` [Example 19, N-(4-fluorobenzyl)-3-hydroxy-9-{ethyl[morpholin-4-yl(oxo)acetyl]amino}-4-oxo-4H-pyrido[1,2-a]pyrimidine-2-carboxamide] and `CCN(C(=O)C(=O)N1CCCC1)c1cccn2c(=O)c(O)c(C(=O)NCc3ccc(F)cc3)nc12` [Example 27, 9-{ethyl[oxo(pyrrolidin-1-yl)acetyl]amino}-N-(4-fluorobenzyl)-3-hydroxy-4-oxo-4H-pyrido[1,2-a]pyrimidine-2-carboxamide] cannot be ordered by IC95: under 1 µM for the first, under 1 µM for the second.

`CCN(CC)CC(=O)N(CC)c1cccn2c(=O)c(O)c(C(=O)NCc3ccc(F)cc3)nc12` [Example 21, 9-[(N,N-diethylglycyl)(ethyl)amino]-N-(4-fluorobenzyl)-3-hydroxy-4-oxo-4H-pyrido[1,2-a]pyrimidine-2-carboxamide] and `CCN(C(=O)CN1CCN(C)CC1)c1cccn2c(=O)c(O)c(C(=O)NCc3ccc(F)cc3)nc12` [Example 23, 9-{ethyl[(4-methylpiperazin-1-yl)acetyl]amino}-N-(4-fluorobenzyl)-3-hydroxy-4-oxo-4H-pyrido[1,2-a]pyrimidine-2-carboxamide] cannot be ordered by IC95: over 1 µM for the first, over 1 µM for the second.

First: CCN(C(=O)CN1CCOCC1)c1cccn2c(=O)c(O)c(C(=O)NCc3ccc(F)cc3)nc12 [Example 22, 9-[ethyl(morpholin-4-ylacetyl)amino]-N-(4-fluorobenzyl)-3-hydroxy-4-oxo-4H-pyrido[1,2-a]pyrimidine-2-carboxamide]
Second: CCN(C(=O)C(=O)N1CCN(C)CC1)c1cccn2c(=O)c(O)c(C(=O)NCc3ccc(F)cc3)nc12 [Example 28, 4-[[ethyl(2-{[(4-fluorobenzyl)amino]carbonyl}-3-hydroxy-4-oxo-4H-pyrido[1,2-a]pyrimidin-9-yl)amino](oxo)acetyl]-1-methylpiperazine]
The IC95 of the first is higher: over 1 µM for the first, under 1 µM for the second.

`CCN(C(=O)c1cscn1)c1cccn2c(=O)c(O)c(C(=O)NCc3ccc(F)cc3)nc12` [Example 24, 9-[ethyl(1,3-thiazol-4-ylcarbonyl)amino]-N-(4-fluorobenzyl)-3-hydroxy-4-oxo-4H-pyrido[1,2-a]pyrimidine-2-carboxamide] and `CCN(C(=O)c1ccno1)c1cccn2c(=O)c(O)c(C(=O)NCc3ccc(F)cc3)nc12` [Example 25, 9-[ethyl(isoxazol-5-ylcarbonyl)amino]-N-(4-fluorobenzyl)-3-hydroxy-4-oxo-4H-pyrido[1,2-a]pyrimidine-2-carboxamide] cannot be ordered by IC95: under 1 µM for the first, under 1 µM for the second.

First: CCN(C(=O)c1nnc(C)o1)c1cccn2c(=O)c(O)c(C(=O)NCc3ccc(F)cc3)nc12 [Example 26, 9-{ethyl[(5-methyl-1,3,4-oxadiazol-2-yl)carbonyl]amino}-N-(4-fluorobenzyl)-3-hydroxy-4-oxo-4H-pyrido[1,2-a]pyrimidine-2-carboxamide]
Second: CON(C)Cc1cccn2c(=O)c(O)c(C(=O)NCc3ccc(F)cc3)nc12 [Example 31, N-(4-fluorobenzyl)-3-hydroxy-9-{[methoxy(methyl)amino]methyl}-4-oxo-4H-pyrido[1,2-a]pyrimidine-2-carboxamide]
The IC95 of the first is lower: under 1 µM for the first, over 1 µM for the second.

`CC(=O)N1CCN(Cc2cccn3c(=O)c(O)c(C(=O)NCc4ccc(F)cc4)nc23)CC1` [Example 33, 9-[(4-acetylpiperazin-1-yl)methyl]-N-(4-fluorobenzyl)-3-hydroxy-4-oxo-4H-pyrido[1,2-a]pyrimidine-2-carboxamide] and `O=C(NCc1cccn2c(=O)c(O)c(C(=O)NCc3ccc(F)cc3)nc12)c1ccccc1` [Example 34, 9-[(benzoylamino)methyl]-N-(4-fluorobenzyl)-3-hydroxy-4-oxo-4H-pyrido[1,2-a]pyrimidine-2-carboxamide] cannot be ordered by IC95: over 1 µM for the first, over 1 µM for the second.
